How the values were obtained:
myeloperoxidase [1] = biological target: T1, myeloperoxidase (Homo sapiens, UniProt P05164); assay: MPO Peroxidation Assay (Amplex Red Assay); type: biochemical; details: potency range class, read-out: Amplex Red Assay IC50 value
T1 sequence (P05164 49-745): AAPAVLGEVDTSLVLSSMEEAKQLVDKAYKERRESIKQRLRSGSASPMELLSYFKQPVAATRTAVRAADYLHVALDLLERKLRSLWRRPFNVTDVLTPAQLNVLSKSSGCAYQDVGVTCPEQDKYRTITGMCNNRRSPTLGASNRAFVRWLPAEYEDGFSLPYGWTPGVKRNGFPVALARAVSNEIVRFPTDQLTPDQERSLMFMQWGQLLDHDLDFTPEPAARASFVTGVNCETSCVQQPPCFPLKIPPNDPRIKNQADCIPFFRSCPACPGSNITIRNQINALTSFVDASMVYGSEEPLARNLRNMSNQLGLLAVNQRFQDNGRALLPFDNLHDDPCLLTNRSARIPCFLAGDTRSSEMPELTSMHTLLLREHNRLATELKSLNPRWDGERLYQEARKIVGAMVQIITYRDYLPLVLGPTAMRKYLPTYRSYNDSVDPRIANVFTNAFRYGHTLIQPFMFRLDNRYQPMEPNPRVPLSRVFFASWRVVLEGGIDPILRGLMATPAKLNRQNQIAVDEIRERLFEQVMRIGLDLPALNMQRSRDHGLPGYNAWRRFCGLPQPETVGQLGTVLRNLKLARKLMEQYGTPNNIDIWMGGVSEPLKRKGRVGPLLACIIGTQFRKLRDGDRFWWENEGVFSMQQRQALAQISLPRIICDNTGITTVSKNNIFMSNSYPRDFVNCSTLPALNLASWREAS

myeloperoxidase [2] = biological target: T1, myeloperoxidase; assay: MPO Chlorination Assay (APF Assay); type: biochemical; details: potency range class, read-out: APF Assay IC50 value

IC50 (myeloperoxidase [1])	IC50 (myeloperoxidase [2])	SMILES
101 to 999 nM	1 to 100 nM	Nc1cc([C@H](CCNC23CCC(c4ccccc4)(CC2)C(=O)C3)c2ccccc2)c2nn[nH]c2n1 [Example 182, 4-{[(3R)-3-{5-amino-3H-[1,2,3]triazolo [4,5-b]pyridin-7-yl}-3-phenylpropyl]amino}-1-phenylbicyclo [2.2.2]octan-2-one]
101 to 999 nM	1 to 100 nM	CC(C)(Cc1ccccc1)NCCC(c1ccccc1)c1cc(N)nc2[nH]nnc12 (stereo not shown) [Example 119, 7-{3-[(2-methyl-1-phenylpropan-2-yl)amino]-1-phenylpropyl}-3H-[1,2,3]triazolo [4,5-b]pyridin-5-amine]
1000 to 10000 nM	1 to 100 nM	Nc1cc(C(CCNC2CCN(c3ccccc3)CC2)c2ccccc2)c2nn[nH]c2n1 (stereo not shown) [Example 92, N-(3-{5-amino-3H-[1,2,3]triazolo [4,5-b]pyridin-7-yl}-3-phenylpropyl)-1-phenylpiperidin-4-amine]
101 to 999 nM	101 to 999 nM	NC(=O)c1cccc(CNCCC(c2ccccc2)c2cc(N)nc3[nH]nnc23)c1 (stereo not shown) [Example 70, 3-{[(3-{5-amino-3H-[1,2,3]triazolo[4,5-b]pyridin-7-yl}-3-phenylpropyl)amino]methyl}hbenzamide]
101 to 999 nM	1 to 100 nM	Nc1cc(C(CCN[C@H]2CC[C@H](c3ccccc3)CC2)c2cccc(OC(F)F)c2)c2nn[nH]c2n1 (stereo partly drawn) [Example 166, 7-{1-[3-(difluoromethoxy)phenyl]-3-{[(trans)-4-phenylcyclohexyl]amino}propyl}-3H-[1,2,3]triazolo[4,5-b]pyridin-5-amine]
1 to 100 nM	1 to 100 nM	Nc1cc(C(CCNC23CCC(c4ccccc4)(CC2)CC3O)c2ccccc2)c2nn[nH]c2n1 (stereo not shown) [Example 152, 1-[(3-{5-amino-3H-[1,2,3]triazolo[4,5-b]pyridin-7-yl}-3-phenylpropyl)amino]-4-phenylbicyclo [2.2.2]octan-2-ol]
1000 to 10000 nM	1 to 100 nM	N#Cc1ccc(-c2ccc3nc(C[C@H](c4ccccc4)c4cc(N)nc5[nH]nnc45)[nH]c3c2)cc1 [Example 255, (R)-4-(2-(2-(5-amino-3H-[1,2,3]triazolo[4,5-b]pyridin-7-yl)-2-phenylethyl)-1H-benzo[d]imidazol-6-yl)benzonitrile]
1 to 100 nM	1 to 100 nM	Nc1cc(C(Cc2ccccc2)c2ccccc2F)c2nn[nH]c2n1 (single isomer, unassigned) [Example 10, 7-(1-(2-fluorophenyl)-2-phenylethyl)-3H-[1,2,3]triazolo[4,5-b]pyridin-5-amine]
1000 to 10000 nM	101 to 999 nM	Nc1cc(C(CCNC2(c3ccccc3)CCC(c3ccccc3)CC2)c2ccccc2)c2nn[nH]c2n1 (stereo not shown) [Example 144, 7-{3-[(1,4-diphenylcyclohexyl)amino]-1-phenylpropyl}-3H-[1,2,3]triazolo [4,5-b]pyridin-5-amine]
101 to 999 nM	1 to 100 nM	Nc1cc([C@H](CCCN2CCCC(c3ccccc3)CC2)c2ccccc2)c2nn[nH]c2n1 (stereo partly drawn) [Example 215, 7-[(1R)-1-phenyl-4-(4-phenylazepan-1-yl)butyl]-3H-[1,2,3]triazolo[4,5-b]pyridin-5-amine]

The remaining lines, values behind:

SMILES	IC50 (myeloperoxidase [1])	IC50 (myeloperoxidase [2])
Nc1cc(C(CCNC2(Cc3ccccc3)CCC(c3ccccc3)CC2)c2ccccc2)c2nn[nH]c2n1 (stereo not shown) [Example 142, 7-{3-[(1-benzyl-4-phenylcyclohexyl)amino]-1-phenylpropyl}-3H-[1,2,3]triazolo[4,5-b]pyridin-5-amine]	1000 to 10000 nM	101 to 999 nM
Nc1cc(C(CCN[C@@H]2CCc3c(Cl)cc(Cl)cc32)c2ccccc2)c2nn[nH]c2n1 (stereo partly drawn) [Example 123, 7-(3-{[(1R)-4,6-dichloro-2,3-dihydro-1H-inden-1-yl]amino}-1-phenylpropyl)-3H-[1,2,3]triazolo[4,5-b]pyridin-5-amine]	101 to 999 nM	101 to 999 nM
Cn1c(C[C@H](c2ccccc2)c2cc(N)nc3[nH]nnc23)nc2c(-c3ccccc3)cccc21 [Example 262, (R)-7-(2-(1-methyl-4-phenyl-1H-benzo[d]imidazol-2-yl)-1-phenylethyl)-3H-[1,2,3]triazolo [4,5-b]pyridin-5-amine]	1000 to 10000 nM	1000 to 10000 nM
COC(=O)c1cccc(CNCCC(c2ccccc2)c2cc(N)nc3[nH]nnc23)c1 (stereo not shown) [Example 59, methyl 3-{[(3-{5-amino-3H-[1,2,3]triazolo [4,5-b]pyridin-7-yl}-3-phenylpropyl)amino]methyl} benzoate]	101 to 999 nM	101 to 999 nM
Nc1cc([C@H](CCN(CC2CCCO2)C23CCC(c4ccccc4)(CC2)CC3)c2ccccc2)c2nn[nH]c2n1 (stereo partly drawn) [Example 195, 7-[(1R)-3-{[(oxolan-2-yl)methyl]({4-phenylbicyclo [2.2.2]octan-1-yl})amino}-1-phenylpropyl]-3H-[1,2,3]triazolo[4,5-b]pyridin-5-amine]	101 to 999 nM	1 to 100 nM
Nc1cc(C(CCN[C@H]2C[C@H](c3ccccc3)Cc3ccccc32)c2ccccc2)c2nn[nH]c2n1 (stereo partly drawn) [Example 82, 7-(1-phenyl-3-{[(1S,3R)-3-phenyl-1,2,3,4-tetrahydronaphthalen-1-yl]amino}propyl)-3H-[1,2,3]triazolo [4,5-b]pyridin-5-amine]	1000 to 10000 nM	1 to 100 nM
Nc1cc(C(CCCN2CCC3(CC2)OCc2ccccc23)c2ccccc2)c2nn[nH]c2n1 (stereo not shown) [Example 210, 7-(1-phenyl-4-{3H-spiro[2-benzofuran-1,4′-piperidine]-1′-yl}butyl)-3H-[1,2,3]triazolo [4,5-b]pyridin-5-amine]	101 to 999 nM	1 to 100 nM
COc1ccc2c(c1)CC[C@H]2NCCC(c1ccccc1)c1cc(N)nc2[nH]nnc12 (stereo partly drawn) [Example 121, 7-(3-{[(1R)-5-methoxy-2,3-dihydro-1H-inden-1-yl]amino}-1-phenylpropyl)-3H-[1,2,3]triazolo[4,5-b]pyridin-5-amine]	101 to 999 nM	101 to 999 nM
Nc1cc(C(CCNCc2ccc(C(F)(F)F)cc2)c2ccccc2)c2nn[nH]c2n1 (stereo not shown) [Example 54, 7-[1-phenyl-3-({[4-(trifluoromethyl)phenyl]methyl}amino)propyl]-3H-[1,2,3]triazolo[4,5-b]pyridin-5-amine]	101 to 999 nM	101 to 999 nM
Nc1cc(C(CCN[C@H]2CC[C@H](c3ccccc3)CC2)c2cccc(S(N)(=O)=O)c2)c2nn[nH]c2n1 (stereo partly drawn) [Example 165, 3-(1-{5-amino-3H-[1,2,3]triazolo [4,5-b]pyridin-7-yl}-3-{[(trans)-4-phenylcyclohexyl]amino}propyl) benzene-1-sulfonamide]	101 to 999 nM	101 to 999 nM

Source: patent publication US11008317B2, “Triazolopyridine inhibitors of myeloperoxidase and/or EPX” (priority 2016, dated 2021)
